Results from PMC7160333, “Physiological Role of Glutamate Dehydrogenase in Cancer Cells” (Frontiers in Oncology, 2020).
Where two headings read alike, the source gives them in different places.

Tests used:
[1] = test system: total GDH activity (GDH1 + GDH2) in HeLa and MCF-7 cells; conditions: 5 mM NH4Cl in culture medium, 5 days, data not shown
MCF-7 cells [2] = conditions: for Duplication time: MCF-7, 2-D culture, n = 3; for Maximal cellular densities: reached at day 6
Protocol: (§2) All cancer and non-cancer cell lines used were purchased from ATCC and cultured in DMEM (Sigma-Aldrich) supplemented with 10% fetal bovine serum (Biowest, Nuaillé, France) and 10,000 U penicillin/streptomycin (Sigma-Aldrich) and placed under a humidified atmosphere of 5% CO2/95% air at 37°C.
(§3) Cell growth was followed by counting cellular density every 24 h during 7 to 8 days. […] The duplication time was determined by using the following equation: n=1/[3.32(logNF-logNI)]/(tF-tI) , where NF represents the number of cultured cells at the end of the exponential growth phase; NI represents the number of cells at the beginning of the growth curve; tF is the final time at which cells were harvested, and tI is the initial culture time. The specific growth rate μ was calculated from the slope of a semilogarithmic plot of cell densities in the exponential growth phase vs. time ([88]).

[3] = test system: recombinant human GDH isoforms (GDH1 and GDH2), bovine liver GDH, Ox brain GDH, dogfish liver GDH, rat brain GDH, and bovine brain GDH isoforms; design: method as in PMID 4381532, PMID 7588764, PMID 17924438, PMID 23420347, PMID 7190024; conditions: pH range of 7.4–8.7; cited from earlier work
HCT116 cells = conditions: for Duplication time: HCT116, 2-D culture, n = 3; for Maximal cellular densities: reached at day 7
Protocol: as §2, §3

A549 cells = conditions: for Duplication time: A549, 2-D culture, n = 3; for Maximal cellular densities: reached at day 6
Protocol: as §2, §3

HeLa cells = conditions: for Duplication time: 2-D culture, n = 3; for Maximal cellular densities: reached at day 4
Protocol: as §2, §3

DU145 cells = conditions: for Duplication time: DU145, 2-D culture, n = 3; for Maximal cellular densities: reached at day 5
Protocol: as §2, §3

PC3 cells = conditions: for Maximal cellular densities: reached at day 5
Protocol: as §2, §3

GDH in HepM and RLM = GDH in HepM and RLM (Rattus norvegicus, UniProt P10860); assay: GDH reverse reaction kinetics, summary statements for HepM and RLM; assay type: biochemical
Sequence of GDH in HepM and RLM (P10860 54-558): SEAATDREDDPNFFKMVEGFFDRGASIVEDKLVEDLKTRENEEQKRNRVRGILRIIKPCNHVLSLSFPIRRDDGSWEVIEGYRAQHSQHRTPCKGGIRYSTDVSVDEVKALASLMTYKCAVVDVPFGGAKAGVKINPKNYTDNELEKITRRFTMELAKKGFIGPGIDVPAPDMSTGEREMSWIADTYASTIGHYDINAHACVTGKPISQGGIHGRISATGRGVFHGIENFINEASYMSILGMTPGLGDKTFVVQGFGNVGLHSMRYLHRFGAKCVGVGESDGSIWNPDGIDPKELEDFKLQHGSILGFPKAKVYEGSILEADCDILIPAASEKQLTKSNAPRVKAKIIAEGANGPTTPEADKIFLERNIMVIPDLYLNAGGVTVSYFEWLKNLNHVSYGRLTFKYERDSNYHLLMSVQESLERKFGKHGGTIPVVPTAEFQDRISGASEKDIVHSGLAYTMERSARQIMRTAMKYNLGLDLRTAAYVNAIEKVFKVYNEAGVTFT
Protocol: The decrease in the absorbance at 340 nm was followed for several minutes (~10 min) to allow for full development of the pronounced enzyme hysteretic behavior, although the initial signal decrease (1–3 min) was taken to calculate the GDH rates. The protein concentration ranges used for each mitochondrial type were well within the linearity range of enzyme activity. To calculate the kinetic parameters, the experimental data were fitted by non-linear regression analysis to the Hill or MWC equation, using the Microcal Origin 5.0 software (OriginLab, Northampton, MA, USA).

Colo 205 cells = conditions: for Duplication time: Colo 205, 2-D culture, n = 3; for Maximal cellular densities: reached at day 6
Protocol: as §2, §3

MCF-7 cells [4] = test system: MCF-7 cells; design: method as in PMID 28303961; conditions: MCF-7, ammonium 2–5 mM; cited from earlier work
3T3 fibroblasts = conditions: for Duplication time: 3T3, 2-D culture, n = 3; for Maximal cellular densities: reached at day 5
Protocol: as §2, §3

HeLa MCTS = assay: HeLa multicellular tumor spheroid (MCTS) growth with ammonium; assay type: cell-based, human
Protocol: (§1) After 5 days, the culture medium was refreshed, and the MCTSs formed were placed under slow orbital shaking (20–50 rpm) at 37°C and 95% air/5% CO2. […] The spheroid growth was determined at the indicated times by measuring MCTS diameter with a calibrated reticule (1/10 mm) in an inverted phase contrast microscope (Zeiss, Thornwood, NY, USA) ([86]).

HFF-1 fibroblasts = conditions: for Duplication time: HFF-1, 2-D culture, n = 3; for Maximal cellular densities: reached at day 5
Protocol: as §2, §3

RLM GDH1 = RLM GDH1 (Rattus norvegicus, UniProt P10860); assay: GDH reverse (aminating) reaction activity in rat liver mitochondria (RLM); assay type: biochemical; conditions: RLM; for K0.5 NH4+: reverse reaction, Hill equation; for Km: read-out: Km NH4+
Sequence of RLM GDH1 (P10860 54-558): as above
Protocol: Tightly coupled mitochondria were isolated from fed-rat liver (RLM) and AS-30D cells (HepM) as described elsewhere ([89], [90]). […] The resulting mitochondrial fractions were resuspended at 30 to 80 mg protein/mL in SHE buffer with 1 mM PMSF, 1 mM EDTA, 5 mM DTT, and 10% glycerol, and stored at −70°C until use for determination of enzyme activity and Western blotting.

SiHa cells = conditions: for Duplication time: 2-D culture, n = 3; for Maximal cellular densities: reached at day 6
Protocol: as §2, §3

MDA-MB-231 cells = conditions: for Duplication time: MDA-MB-231, 2-D culture, n = 3
Protocol: as §2, §3

GDH = conditions: GDH1, reported values; cited from earlier work
MDA-MB-231 MCTS = assay: MDA-MB-231 multicellular tumor spheroid (MCTS) growth with ammonium; assay type: cell-based, human
Protocol: as §1

Compound: Cl.N [NH4Cl, Ammonium chloride]
- Change of total GDH activity [1]: did not alter the total GDH activity or induced a slight (~20%) decrease
- Duplication time (MCF-7 cells [2]; +5 mM NH4Cl): 37 ± 2 h
- Duplication time (MCF-7 cells [2]; +10 mM NH4Cl): 45 ± 6 h
- Maximal cellular densities (MCF-7 cells [2]; MCF-7, +5 mM NH4Cl): 72 ± 6 ×10^3
- Maximal cellular densities (MCF-7 cells [2]; MCF-7, +10 mM NH4Cl): 76 ± 5 ×10^3
- K0.5 NH4+ [3]: 6.5 to 80 mM
- Duplication time (HCT116 cells; +5 mM NH4Cl): 45 ± 1 h
- Duplication time (HCT116 cells; +10 mM NH4Cl): 39 ± 2 h
- Maximal cellular densities (HCT116 cells; HCT116, +5 mM NH4Cl): 76 ± 11 ×10^3
- Maximal cellular densities (HCT116 cells; HCT116, +10 mM NH4Cl): 80 ± 13 ×10^3
- Duplication time (A549 cells; +5 mM NH4Cl): 20 ± 2 h
- Duplication time (A549 cells; +10 mM NH4Cl): 17 ± 3 h
- Maximal cellular densities (A549 cells; A549, +5 mM NH4Cl): 49 ± 4 ×10^3
- Maximal cellular densities (A549 cells; A549, +10 mM NH4Cl): 56 ± 2 ×10^3
- Duplication time (HeLa cells; +5 mM NH4Cl): 25.5 ± 2 h
- Duplication time (HeLa cells; +10 mM NH4Cl): 24 ± 2 h
- Maximal cellular densities (HeLa cells; +5 mM NH4Cl): 153 ± 13 ×10^3
- Maximal cellular densities (HeLa cells; +10 mM NH4Cl): 163 ± 9 ×10^3
- Rescue of growth after glutamine removal from the culture medium (HeLa cells; NH4Cl 1–10 mM, data not shown): did not rescue their growth
- Proliferation rates (DU145 cells; DU145, 0.1 and 0.5 mM NH4Cl, data not shown): increased proliferation rates
- Duplication time (DU145 cells; +5 mM NH4Cl): 32 ± 2 h
- Duplication time (DU145 cells; +10 mM NH4Cl): 35 ± 3 h
- Maximal cellular densities (DU145 cells; DU145, +5 mM NH4Cl): 92 ± 6 ×10^3
- Maximal cellular densities (DU145 cells; DU145, +10 mM NH4Cl): 85 ± 4 ×10^3
- Duplication time (PC3 cells; PC3, 2-D culture, +10 mM NH4Cl, n = 3): 26 ± 1 h
- Maximal cellular densities (PC3 cells; PC3, +5 mM NH4Cl): 136 ± 2 ×10^3
- Maximal cellular densities (PC3 cells; PC3, +10 mM NH4Cl): 141 ± 1.4 ×10^3
- K0.5 for NH4+ (GDH in HepM and RLM; Hill equation, HepM and RLM, summary): over 20 mM
- Km (GDH in HepM and RLM; MWC equation, pH 7.5, summary of Table 3, read-out: Km for ammonium): ~9 mM
- Duplication time (Colo 205 cells; +5 mM NH4Cl): 48 ± 2 h
- Duplication time (Colo 205 cells; +10 mM NH4Cl): 44 ± 4 h
- Maximal cellular densities (Colo 205 cells; Colo 205, +5 mM NH4Cl): 68 ± 6 ×10^3
- Maximal cellular densities (Colo 205 cells; Colo 205, +10 mM NH4Cl): 66 ± 6 ×10^3
- Cell proliferation (MCF-7 cells [4]): only slightly stimulated
- Duplication time (3T3 fibroblasts; +5 mM NH4Cl): 46 ± 2 h
- Duplication time (3T3 fibroblasts; +10 mM NH4Cl): 60 ± 1 h
- Maximal cellular densities (3T3 fibroblasts; 3T3, +5 mM NH4Cl): 45 ± 3 ×10^3
- Maximal cellular densities (3T3 fibroblasts; 3T3, +10 mM NH4Cl): 36 ± 2 ×10^3
- IC50 (3T3 fibroblasts; read-out: IC50 for decrease of growth, mouse 3T3 fibroblasts, data not shown): ~1000 µM
- MCTS growth (diameter) (HeLa MCTS; 5 and 10 mM ammonium): inhibited
- MCTS growth (diameter) (HeLa MCTS; ammonium supplementation): did not stimulate growth
- Duplication time (HFF-1 fibroblasts; +5 mM NH4Cl): 38 ± 12 h
- Duplication time (HFF-1 fibroblasts; +10 mM NH4Cl): 55 ± 2 h
- Maximal cellular densities (HFF-1 fibroblasts; HFF-1, +5 mM NH4Cl): 60 ± 10 ×10^3
- Maximal cellular densities (HFF-1 fibroblasts; HFF-1, +10 mM NH4Cl): 46 ± 3 ×10^3
- IC50 (HFF-1 fibroblasts; read-out: IC50 for decrease of growth, human HFF-1 fibroblasts, data not shown): ~1000 µM
- K0.5 NH4+ (RLM GDH1; pH 7.2, 37°C): 23.9 ± 3.7 mM
- nH (Hill coefficient) for NH4+ (RLM GDH1; pH 7.2, Hill equation): 1.97 ± 0.8
- Km (RLM GDH1; pH 7.2, MWC equation, GTP inhibition, saturating ADP): 8.5 ± 4.5 mM
- Km (RLM GDH1; pH 7.2, MWC equation, with ADP): 18 ± 11 mM
- K0.5 NH4+ (RLM GDH1; pH 7.5, 37°C): 18.2 ± 5.9 mM
- nH (Hill coefficient) for NH4+ (RLM GDH1; pH 7.5, Hill equation): 1.4 ± 0.4
- Km (RLM GDH1; pH 7.5, MWC equation, GTP inhibition, saturating ADP): 5.6 ± 3.6 mM
- Km (RLM GDH1; pH 7.5, MWC equation, with ADP): 8.8 ± 4.1 mM
- Duplication time (SiHa cells; +5 mM NH4Cl): 51 ± 4 h
- Duplication time (SiHa cells; +10 mM NH4Cl): 55 ± 5 h
- Maximal cellular densities (SiHa cells; +5 mM NH4Cl): 86 ± 7 ×10^3
- Maximal cellular densities (SiHa cells; +10 mM NH4Cl): 82 ± 5 ×10^3
- Duplication time (MDA-MB-231 cells; +5 mM NH4Cl): 26 ± 3 h
- Duplication time (MDA-MB-231 cells; +10 mM NH4Cl): 25 ± 1 h
- Maximal cellular densities (MDA-MB-231 cells; MDA-MB-231, +5 mM NH4Cl, reached at day 4): 145 ± 13 ×10^3
- Rescue of growth after glutamine removal from the culture medium (MDA-MB-231 cells; MDA-MB-231, NH4Cl 1–10 mM, data not shown): did not rescue their growth
- reported K0.5 for ammonium (GDH): 15 to 60 mM
- MCTS growth (diameter) (MDA-MB-231 MCTS; ammonium 10 mM): clearly toxic
- MCTS growth (diameter) (MDA-MB-231 MCTS; ammonium 0.5–5 mM): promoted enhanced growth rates
